In ChEMBL document CHEMBL1137232 (J Med Chem, 2004) one finds Ki data, which are given here for 29 compounds.

The target in assay [1] is Sodium-dependent serotonin transporter (Rattus norvegicus, UniProt P31652). Kind of assay: Inhibition of high affinity uptake by the serotonin transporter (5-HT) from rat synaptosomal nerve endings by using [3H]5-HT as radioligand.
Assay [2] has as its target Sodium-dependent dopamine transporter (Rattus norvegicus, UniProt P23977). Kind of assay: Inhibition of high affinity uptake by the dopamine transporter from rat synaptosomal nerve endings by using [3H]DA as radioligand.
Assay [3] addresses Norepinephrine transporter (Rattus norvegicus, UniProt Q9WTR4). The assay is described as follows: Inhibition of high affinity uptake by the norepinephrine transporter from rat synaptosomal nerve endings by using [3H]NE as radioligand.

SMILES strings stand for the structures.

Sodium-dependent serotonin transporter, sequence (P31652 whole entry): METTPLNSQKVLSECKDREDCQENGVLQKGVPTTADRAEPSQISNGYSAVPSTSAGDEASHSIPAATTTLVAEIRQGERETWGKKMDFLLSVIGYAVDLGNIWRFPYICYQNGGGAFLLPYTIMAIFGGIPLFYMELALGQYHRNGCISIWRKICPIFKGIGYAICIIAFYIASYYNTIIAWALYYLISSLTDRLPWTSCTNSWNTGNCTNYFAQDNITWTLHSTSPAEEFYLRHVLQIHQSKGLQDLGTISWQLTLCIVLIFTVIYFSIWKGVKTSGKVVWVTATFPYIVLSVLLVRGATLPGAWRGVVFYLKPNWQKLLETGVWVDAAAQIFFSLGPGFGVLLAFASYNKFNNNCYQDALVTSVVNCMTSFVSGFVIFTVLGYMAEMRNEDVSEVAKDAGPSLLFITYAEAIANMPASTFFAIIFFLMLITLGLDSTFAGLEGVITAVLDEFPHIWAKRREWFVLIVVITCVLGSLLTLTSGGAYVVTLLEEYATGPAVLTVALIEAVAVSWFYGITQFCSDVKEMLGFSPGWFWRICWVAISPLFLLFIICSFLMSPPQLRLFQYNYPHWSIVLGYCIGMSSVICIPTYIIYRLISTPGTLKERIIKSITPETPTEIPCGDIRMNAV
Norepinephrine transporter, sequence (Q9WTR4 whole entry): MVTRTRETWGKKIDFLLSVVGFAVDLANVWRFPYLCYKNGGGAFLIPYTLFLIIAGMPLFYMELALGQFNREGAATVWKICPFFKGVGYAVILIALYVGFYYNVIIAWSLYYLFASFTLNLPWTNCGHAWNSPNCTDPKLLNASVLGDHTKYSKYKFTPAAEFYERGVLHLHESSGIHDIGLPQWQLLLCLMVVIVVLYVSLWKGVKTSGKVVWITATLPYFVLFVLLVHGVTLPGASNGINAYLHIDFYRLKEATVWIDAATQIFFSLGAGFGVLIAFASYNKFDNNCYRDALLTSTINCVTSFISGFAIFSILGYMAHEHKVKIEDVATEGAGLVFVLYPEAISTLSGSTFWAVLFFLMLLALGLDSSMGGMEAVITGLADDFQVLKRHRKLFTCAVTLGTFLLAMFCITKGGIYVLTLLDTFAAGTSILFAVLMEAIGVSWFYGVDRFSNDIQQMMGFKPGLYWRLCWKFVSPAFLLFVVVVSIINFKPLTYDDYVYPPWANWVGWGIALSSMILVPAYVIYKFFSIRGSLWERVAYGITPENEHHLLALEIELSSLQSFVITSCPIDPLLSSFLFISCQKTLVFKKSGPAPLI
Sodium-dependent dopamine transporter, sequence (P23977 whole entry): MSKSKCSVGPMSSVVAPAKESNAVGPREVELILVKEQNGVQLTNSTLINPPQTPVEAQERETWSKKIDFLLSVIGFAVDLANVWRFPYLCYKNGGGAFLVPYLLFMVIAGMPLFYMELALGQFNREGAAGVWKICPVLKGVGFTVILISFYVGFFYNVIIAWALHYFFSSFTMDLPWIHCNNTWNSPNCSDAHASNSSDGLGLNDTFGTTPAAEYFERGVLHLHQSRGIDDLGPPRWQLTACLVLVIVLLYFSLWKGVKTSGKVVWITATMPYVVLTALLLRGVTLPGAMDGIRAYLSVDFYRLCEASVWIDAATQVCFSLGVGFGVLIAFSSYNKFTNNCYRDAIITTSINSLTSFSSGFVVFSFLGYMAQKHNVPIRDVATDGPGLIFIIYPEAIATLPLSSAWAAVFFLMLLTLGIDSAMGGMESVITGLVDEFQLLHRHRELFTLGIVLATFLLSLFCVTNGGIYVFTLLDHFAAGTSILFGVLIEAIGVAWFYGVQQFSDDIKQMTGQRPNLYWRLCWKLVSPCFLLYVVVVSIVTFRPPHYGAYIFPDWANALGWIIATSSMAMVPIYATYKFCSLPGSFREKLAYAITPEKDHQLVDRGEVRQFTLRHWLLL

For `CNC(=O)C[S+]([O-])CC1CN(C)CCC1c1ccc(Cl)cc1` (stereo not given), the Ki in assay [1] was determined as 2030 nM; in assay [2], 164 nM; in assay [3], 86 nM.

`CN1CCC(c2ccc(Cl)cc2)C(CSCCOC(=O)c2ccccc2)C1` (stereo not given): the Ki in assay [1] was 6.7 nM; in assay [2], 68 nM; in assay [3], 4.5 nM.

On to `CN1CCC(c2ccc(Cl)cc2)C(C[S+]([O-])CCOC(=O)c2ccccc2)C1` (stereo not given), for which the Ki is 199 nM in assay [1], 32 nM in assay [2] and 18 nM in assay [3].

Consider `CC(=O)OCCSCC1CN(C)CCC1c1ccc(Cl)cc1` (stereo not given), for which the Ki amounted to 57 nM in assay [1], 35 nM in assay [2] and 3.6 nM in assay [3].

Consider `CN1CCC(c2ccc(Cl)cc2)C(C[S+]([O-])CC(=O)N2CCCCC2)C1` (stereo not given), for which the inhibition constant (Ki) in assay [1] was determined as 825 nM; in assay [2], 379 nM; in assay [3] it was 460 nM.

On to `CN1CCC(c2ccc(Cl)cc2)C(CSCC(=O)N2CCCCC2)C1` (stereo not given), for which the Ki turned out to be 4.5 nM in assay [1], 83 nM in assay [2] and 0.68 nM in assay [3].

For `CN1CCC(c2ccc(Cl)cc2)C(CSCC(=O)N(C)C)C1` (stereo not given), the figures for the Ki in assay [1], in assay [2] and in assay [3] were 88 nM, 116 nM and 27 nM, respectively.

Consider `CNC(=O)CSCC1CN(C)CCC1c1ccc(Cl)cc1` (stereo not given), for which the results for the Ki in assay [1], in assay [2] and in assay [3] were 110 nM, 13 nM and 25 nM, respectively.

Regarding `Cc1noc(C[S+]([O-])CC2CN(C)CCC2c2ccc(Cl)cc2)n1` (stereo not given), the inhibition constant (Ki) in assay [1] was found to be 1080 nM; in assay [2] it was 1650 nM; in assay [3], 218 nM.

Turning to `CC(C)NC(=O)C[S+]([O-])CC1CN(C)CCC1c1ccc(Cl)cc1` (stereo not given), the inhibition constant Ki stood at 473 nM in assay [1], 248 nM in assay [2] and 20 nM in assay [3].

For the compound `NC(=O)C[S+]([O-])CC1CNCCC1c1ccc(Cl)cc1` (stereo not given), the figures for the Ki in assay [1], in assay [2] and in assay [3] were 775 nM, 108 nM and 31 nM, respectively.

For the compound `COC(=O)C[S+]([O-])CC1CN(C)CCC1c1ccc(Cl)cc1` (stereo not given), the results for the Ki in assay [1], in assay [2] and in assay [3] were 809 nM, 231 nM and 53 nM, respectively.

Consider `NC(=O)CSCC1CNCCC1c1ccc(Cl)cc1` (stereo not given), for which the Ki in assay [1] stood at 170 nM; in assay [2], 114 nM; in assay [3], 10 nM.

Take `CN1CCC(c2ccc(Cl)cc2)C(C[S+]([O-])CC(=O)N(C)C)C1` (stereo not given): the Ki came to 924 nM in assay [1], 2880 nM in assay [2] and 1250 nM in assay [3].

`CN1CCC(c2ccc(Cl)cc2)C(CSCC(N)=O)C1` (stereo not given): the Ki in assay [1] is 557 nM; in assay [2] it was 159 nM; in assay [3] it was 39 nM.

For `CN1CCC(c2ccc(Cl)cc2)C(CSCCO)C1` (stereo not given), the Ki in assay [1] was determined as 158 nM; in assay [2], 16 nM; in assay [3], 0.94 nM.

As for `COCCSCC1CN(C)CCC1c1ccc(Cl)cc1` (stereo not given), the Ki came to 191 nM in assay [1], 50 nM in assay [2] and 6 nM in assay [3].

`COC(=O)C1CN(C)CCC1c1ccc(Cl)cc1` (stereo not given): the figures for the Ki in assay [1] and in assay [3] were 8490 nM and 252 nM, respectively.

With `CC(=O)OCC[S+]([O-])CC1CN(C)CCC1c1ccc(Cl)cc1` (stereo not given), the Ki amounted to 87 nM in assay [1], 9 nM in assay [2] and 29 nM in assay [3].

On to `CN1CCC(c2ccc(Cl)cc2)C(C[S+]([O-])CCO)C1` (stereo not given), for which the inhibition constant (Ki) in assay [1] came to 2180 nM; in assay [2], 12 nM; in assay [3], 42 nM.

As to `COC(=O)CSCC1CN(C)CCC1c1ccc(Cl)cc1` (stereo not given), the results for the Ki in assay [1], in assay [2] and in assay [3] were 208 nM, 80 nM and 25 nM, respectively.

For the compound `CN1CCC(c2ccc(Cl)cc2)C(CSCC(=O)NO)C1` (stereo not given), the Ki in assay [1] amounted to 227 nM; in assay [2], 85 nM; in assay [3], 15 nM.

Turning to `CC(C)NC(=O)CSCC1CN(C)CCC1c1ccc(Cl)cc1` (stereo not given), the results for the Ki in assay [1], in assay [2] and in assay [3] were 1.1 nM, 1 nM and 0.8 nM, respectively.

`CN1CCC(c2ccc(Cl)cc2)C(C[S+]([O-])CC(N)=O)C1` (stereo not given): the Ki in assay [1] is 5790 nM; in assay [2], 209 nM.

For `COCC[S+]([O-])CC1CN(C)CCC1c1ccc(Cl)cc1` (stereo not given), the inhibitory constant (Ki) in assay [1] was 469 nM; in assay [2], 15 nM; in assay [3], 25 nM.

On to `COC(=O)CSCC1CNCCC1c1ccc(Cl)cc1` (stereo not given), for which the Ki in assay [1] turned out to be 13 nM; in assay [2], 51 nM; in assay [3], 0.56 nM.

Turning to `CN1CCC(c2ccc(Cl)cc2)C(C[S+]([O-])CC(=O)NO)C1` (stereo not given), the inhibitory constant (Ki) in assay [1] stood at 1800 nM; in assay [2], 55 nM; in assay [3], 12 nM.

With `Cc1noc(CSCC2CN(C)CCC2c2ccc(Cl)cc2)n1` (stereo not given), the values for the Ki in assay [1], in assay [2] and in assay [3] were 221 nM, 126 nM and 32 nM, respectively.

Regarding `CN1CCC(c2ccc(Cl)cc2)C(CI)C1` (stereo not given), the values for the Ki in assay [1], in assay [2] and in assay [3] were 238 nM, 376 nM and 424 nM, respectively.
